From the supplement of paper PMC6045584
± gives the standard deviation of the averaged measurements.

What was measured:
FORETINIB = compound: COc1cc2c(Oc3ccc(NC(=O)C4(C(=O)Nc5ccc(F)cc5)CC4)cc3F)ccnc2cc1OCCCN1CCOCC1 [FORETINIB]; test: surviving fraction relative to DMSO-only wells; higher = less growth inhibition; details: exposure time: 5 days
Method in brief: (§1)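 Viability values are CellTiter-Glo luminescence readings, given as surviving fraction against the median of DMSO-only wells. The readings were taken after 10 minutes at room temperature, following five days of continuous exposure to inhibitors at 0.5, 1, 5, 10, 50, 100, 500 and 1000 nM that began 24 hours after log-phase tumour cell lines were seeded at 250–500 cells per well in 384-well plates. Every line was screened three times and kept only if replicate Pearson r >0.7 and median Z' >0.3.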

[1] = compound: COc1cc2ncnc(Nc3ccc(F)c(Cl)c3)c2cc1NC(=O)/C=C/CN1CCCCC1; test: as above; details: exposure time: 5 days
Method in brief: as §1

Test System	surviving fraction (FORETINIB; 0.5 nM)	surviving fraction (FORETINIB; 1 nM)	surviving fraction (FORETINIB; 5 nM)	surviving fraction (FORETINIB; 10 nM)	surviving fraction (FORETINIB; 50 nM)	surviving fraction (FORETINIB; 100 nM)	surviving fraction (FORETINIB; 500 nM)	surviving fraction (FORETINIB; 1000 nM)	surviving fraction ([1]; 0.5 nM)	surviving fraction ([1]; 1 nM)	surviving fraction ([1]; 5 nM)	surviving fraction ([1]; 10 nM)	surviving fraction ([1]; 50 nM)	surviving fraction ([1]; 100 nM)	surviving fraction ([1]; 500 nM)	surviving fraction ([1]; 1000 nM)
LM7 BONE	1.02 ± 0.028	1.04 ± 0.06	1.05 ± 0.016	1.02 ± 0.011	0.997 ± 0.015	1.03 ± 0.058	0.725 ± 0.042	0.216 ± 0.013	0.93 ± 0.059	0.998 ± 0.078	0.983 ± 0.063	1.06 ± 0.094	1.01 ± 0.011	0.957 ± 0.055	0.532 ± 0.063	0.287 ± 0.006
SKBR3 BREAST	1.11 ± 0.02	1.14 ± 0.15	1.08 ± 0.063	1.08 ± 0.15	1.13 ± 0.066	0.982 ± 0.064	0.886 ± 0.065	0.868 ± 0.11	0.879 ± 0.038	0.983 ± 0.089	0.522 ± 0.041	0.471 ± 0.03	0.195 ± 0.0032	0.161 ± 0.017	0.145 ± 0.018	0.105 ± 0.018
SCC36 HEADNECK	1.06 ± 0.11	1.11 ± 0.13	1.17 ± 0.02	1.13 ± 0.047	1.115 ± 0.0078	1.08 ± 0.061	0.742 ± 0.084	0.41 ± 0.035	0.84 ± 0.054	0.889 ± 0.024	0.656 ± 0.059	0.618 ± 0.0085	0.432 ± 0.014	0.424 ± 0.057	0.338 ± 0.022	0.235 ± 0.013
CAL120 BREAST	0.95 ± 0.035	1.01 ± 0.033	0.997 ± 0.026	0.993 ± 0.042	0.997 ± 0.069	0.97 ± 0.014	0.683 ± 0.03	0.562 ± 0.016	0.98 ± 0.016	0.952 ± 0.014	0.965 ± 0.021	0.973 ± 0.038	0.959 ± 0.022	0.961 ± 0.04	0.837 ± 0.025	0.543 ± 0.019
KPD BONE	1.05 ± 0.059	1.03 ± 0.029	1.09 ± 0.03	1.11 ± 0.026	1.07 ± 0.04	1.04 ± 0.018	0.63 ± 0.037	0.303 ± 0.028	1.03 ± 0.068	1.05 ± 0.04	1.04 ± 0.037	1.04 ± 0.015	1.05 ± 0.079	1.04 ± 0.019	0.718 ± 0.034	0.493 ± 0.025
H23 LUNG	1.04 ± 0.058	1.07 ± 0.073	1.06 ± 0.073	0.982 ± 0.035	0.976 ± 0.079	0.986 ± 0.08	0.889 ± 0.024	0.388 ± 0.015	0.91 ± 0.056	0.744 ± 0.035	0.468 ± 0.015	0.414 ± 0.026	0.381 ± 0.013	0.38 ± 0.018	0.332 ± 0.023	0.292 ± 0.023
SCC90 HEADNECK	1.08 ± 0.073	1.02 ± 0.045	1.1 ± 0.19	1.08 ± 0.071	1.23 ± 0.061	1.12 ± 0.12	0.753 ± 0.077	0.753 ± 0.25	0.948 ± 0.041	0.938 ± 0.039	0.647 ± 0.1	0.608 ± 0.018	0.388 ± 0.017	0.4 ± 0.024	0.377 ± 0.066	0.294 ± 0.023
SUM44 BREAST	1.14 ± 0.27	1.19 ± 0.36	1.18 ± 0.27	1.23 ± 0.31	1.19 ± 0.21	1.26 ± 0.32	1.11 ± 0.17	1.12 ± 0.19	1.01 ± 0.028	1.03 ± 0.031	1.01 ± 0.05	1.01 ± 0.053	1.03 ± 0.06	1.07 ± 0.018	0.916 ± 0.044	0.727 ± 0.0096
NOS1 BONE	1.12 ± 0.43	1.04 ± 0.052	1 ± 0.063	0.98 ± 0.099	0.79 ± 0.058	0.749 ± 0.028	0.28 ± 0.039	0.114 ± 0.0078	1.1 ± 0.045	1.15 ± 0.077	1.14 ± 0.051	1.17 ± 0.094	1.12 ± 0.16	0.968 ± 0.033	0.26 ± 0.011	0.135 ± 0.012
NCIH441 LUNG	1.11 ± 0.021	1.09 ± 0.063	1.1 ± 0.038	1 ± 0.079	0.983 ± 0.026	0.932 ± 0.065	0.807 ± 0.04	0.655 ± 0.066	1.08 ± 0.13	1.04 ± 0.041	1.05 ± 0.073	1.06 ± 0.04	0.981 ± 0.038	0.859 ± 0.12	0.689 ± 0.051	0.5 ± 0.013
SUM149 BREAST	0.95 ± 0.004	0.912 ± 0.011	1.04 ± 0.17	0.9 ± 0.0082	0.831 ± 0.036	0.969 ± 0.13	0.353 ± 0.05	0.409 ± 0.021	1.03 ± 0.095	1.03 ± 0.061	0.851 ± 0.04	0.747 ± 0.044	0.515 ± 0.056	0.395 ± 0.091	0.362 ± 0.013	0.341 ± 0.071
MFM223 BREAST	1.17 ± 0.043	1.09 ± 0.041	1.18 ± 0.062	1.22 ± 0.034	1.133 ± 0.011	0.94 ± 0.023	0.417 ± 0.17	0.271 ± 0.13	1.094 ± 0.01	1.09 ± 0.042	1.14 ± 0.073	1.15 ± 0.072	1.2 ± 0.078	1.19 ± 0.06	0.914 ± 0.06	0.587 ± 0.055
ASKA SYNOVIAL	1.11 ± 0.065	1.14 ± 0.037	1.06 ± 0.085	1.07 ± 0.075	1.13 ± 0.042	1.03 ± 0.044	0.371 ± 0.026	0.297 ± 0.0071	1.11 ± 0.094	1.23 ± 0.051	1.15 ± 0.038	1.24 ± 0.14	1.3 ± 0.068	1.29 ± 0.04	0.959 ± 0.021	1.12 ± 0.019
HSSYII SYNOVIAL	0.972 ± 0.039	0.941 ± 0.031	0.956 ± 0.038	0.92 ± 0.039	0.85 ± 0.028	0.771 ± 0.028	0.208 ± 0.021	0.0695 ± 0.0013	0.98 ± 0.031	0.942 ± 0.038	0.966 ± 0.054	0.942 ± 0.03	0.928 ± 0.059	0.927 ± 0.045	0.715 ± 0.041	0.495 ± 0.0068
RDES SOFT TISSUE	1.31 ± 0.058	1.25 ± 0.13	1.17 ± 0.088	1.07 ± 0.065	0.989 ± 0.12	0.892 ± 0.092	0.226 ± 0.013	0.106 ± 0.0059	1.27 ± 0.17	1.28 ± 0.086	1.28 ± 0.059	1.33 ± 0.18	1.28 ± 0.2	1.23 ± 0.13	1.23 ± 0.15	1.22 ± 0.1
JURKAT HAEMATOPOIETIC AND LYMPHOID TISSUE	1 ± 0.034	0.979 ± 0.036	1.02 ± 0.031	0.971 ± 0.023	0.923 ± 0.019	0.976 ± 0.039	0.61 ± 0.021	0.601 ± 0.03	1.08 ± 0.037	1.06 ± 0.029	1.06 ± 0.043	1.02 ± 0.017	1.03 ± 0.026	1.04 ± 0.034	0.881 ± 0.056	0.297 ± 0.025
JIMT1 BREAST	0.991 ± 0.015	0.978 ± 0.032	1.03 ± 0.058	1.03 ± 0.031	1 ± 0.041	1.01 ± 0.11	0.62 ± 0.033	0.484 ± 0.087	1 ± 0.044	0.989 ± 0.031	0.91883 ± 0.00029	0.862 ± 0.012	0.653 ± 0.013	0.667 ± 0.016	0.545 ± 0.019	0.362 ± 0.025
22RV1 PROSTATE	1.02 ± 0.065	1.04 ± 0.033	0.98 ± 0.15	0.984 ± 0.043	0.965 ± 0.12	0.99 ± 0.17	0.611 ± 0.061	0.511 ± 0.015	1 ± 0.17	1.04 ± 0.099	0.977 ± 0.059	1 ± 0.087	1.03 ± 0.05	0.97 ± 0.063	1.02 ± 0.061	0.9 ± 0.045
NY BONE	1.05 ± 0.035	1.03 ± 0.034	1.07 ± 0.033	1.016 ± 0.0061	0.91 ± 0.019	0.93 ± 0.045	0.558 ± 0.047	0.587 ± 0.031	0.99 ± 0.014	0.975 ± 0.032	1.05 ± 0.032	1.01 ± 0.071	1.04 ± 0.044	1 ± 0.051	0.756 ± 0.011	0.514 ± 0.01
